Source: PubChem BioAssay AID256 (DTP/NCI, 2004)
Inconclusive results and toxic doses are left out. The calls were made as follows: active = survival T/C of 150% or more; inactive = T/C below 125% in these data.

Tested on: CD2F1 mice, L1210 leukemia ip, survival T/C
Experiment: NCI In Vivo Anticancer Drug Screen. Data for tumor model L1210 Leukemia (intraperitoneal) in CD2F1 (CDF1) mice
Conditions: endpoint: mean survival time, higher = longer survival
Procedure, shortened: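 Implant tumor; dose compound or vehicle; measure endpoint in both groups; report treated divided by control.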

[1] = dose: 100.0 mg/kg/injection, schedule: Q04DX003 (ip), vehicle: saline
[2] = dose: 200.0 mg/kg/injection, schedule: Q04DX003 (ip), vehicle: saline
[3] = dose: 75.0 mg/kg/injection, schedule: Q01DX001 (ip), vehicle: saline
[4] = dose: 150.0 mg/kg/injection, schedule: Q01DX001 (ip), vehicle: saline
[5] = dose: 100.0 mg/kg/injection, schedule: Q04DX003 (ip), vehicle: saline with Tween-80
[6] = dose: 100.0 mg/kg/injection, schedule: Q01DX001 (ip), vehicle: saline with Tween-80
[7] = dose: 100.0 mg/kg/injection, schedule: Q04DX002 (ip), vehicle: saline with Tween-80
[8] = dose: 200.0 mg/kg/injection, schedule: Q04DX002 (ip), vehicle: saline with Tween-80
[9] = dose: 100.0 mg/kg/injection, schedule: Q01DX009 (ip), vehicle: saline with Tween-80
[10] = dose: 200.0 mg/kg/injection, schedule: Q01DX009 (ip), vehicle: saline with Tween-80
[11] = dose: 200.0 mg/kg/injection, schedule: Q04DX003 (ip), vehicle: saline with Tween-80

Measured: T/C

CCCCCC/C=C/C(O)CC (stereo not given)
inactive: [1] 100 % of control | [2] 95 % of control | dose: 400.0 mg/kg/injection, schedule: Q04DX003 (ip), vehicle: saline 103 % of control

CC1=C2CCOC2=Nc2ccccc2O1
inactive: [3] 109 % of control | [4] 104 % of control | dose: 300.0 mg/kg/injection, schedule: Q01DX001 (ip), vehicle: saline 97 % of control

CCCCCn1c(Cl)c(/C=N/NC(N)=S)c2ccccc21
inactive: dose: 25.0 mg/kg/injection, schedule: Q04DX003 (ip), vehicle: saline with Tween-80 102 % of control | dose: 50.0 mg/kg/injection, schedule: Q04DX003 (ip), vehicle: saline with Tween-80 93 % of control | [5] 96 % of control

COC(=O)c1cncn1C1c2ccccc2-c2ccccc21
inactive: dose: 50.0 mg/kg/injection, schedule: Q04DX002 (ip), vehicle: saline with Tween-80 103 % of control | [6] 86 % of control | [7] 98 % of control | dose: 200.0 mg/kg/injection, schedule: Q01DX001 (ip), vehicle: saline with Tween-80 91 % of control | [8] 95 % of control | dose: 400.0 mg/kg/injection, schedule: Q01DX001 (ip), vehicle: saline with Tween-80 91 % of control

CCOC(=O)C=C1CCN(C)CC1
inactive: dose: 50.0 mg/kg/injection, schedule: Q04DX003 (ip), vehicle: saline 94 % of control | [1] 97 % of control | [2] 97 % of control

CC(C)(CCC(=O)O)C(=O)O
inactive: dose: 50.0 mg/kg/injection, schedule: Q01DX009 (ip), vehicle: saline with Tween-80 100 % of control | [9] 98 % of control | [1] 102 % of control | [10] 98 % of control | [2] 96 % of control

CC(C)=CCOC1=CC(=O)C(=O)c2ccccc21
inactive: [6] 103 % of control

CN(C)CCC(=O)c1ccc([N+](=O)[O-])cc1
inactive: dose: 1.25 mg/kg/injection, schedule: Q01DX009 (ip), vehicle: saline with Tween-80 102 % of control | dose: 2.5 mg/kg/injection, schedule: Q01DX009 (ip), vehicle: saline with Tween-80 96 % of control | dose: 5.0 mg/kg/injection, schedule: Q01DX009 (ip), vehicle: saline with Tween-80 95 % of control | dose: 5.0 mg/kg/injection, schedule: Q04DX003 (ip), vehicle: saline with Tween-80 100 % of control

Nc1cccc2scnc12
inactive: [9] 104 % of control | [10] 96 % of control

N#Cc1nccnc1Cl
inactive: [5] 96 % of control | [11] 86 % of control

COc1ccccc1NC(=O)OCC(Cl)(Cl)Cl
inactive: [7] 103 % of control | [8] 100 % of control | dose: 400.0 mg/kg/injection, schedule: Q04DX002 (ip), vehicle: saline with Tween-80 95 % of control

COc1cc2ccc(-c3cc(C(=O)O)c4ccccc4n3)cc2cc1OC
inactive: [3] 93 % of control | [4] 93 % of control

O=C(CCC(O)(C(=O)c1ccccc1)c1ccccc1)c1ccccc1 (stereo not given)
inactive: [5] 91 % of control | [11] 94 % of control | dose: 400.0 mg/kg/injection, schedule: Q04DX003 (ip), vehicle: saline with Tween-80 88 % of control

CCCCCCCCCCCCCC[N+]1(C)CCC[N+](C)(CCCCCCCCCCCCCC)CC1 (stereo not given)
inactive: dose: 100.0 mg/kg/injection, schedule: Q04DX003 (ip), vehicle: other 103 % of control | dose: 200.0 mg/kg/injection, schedule: Q04DX003 (ip), vehicle: other 88 % of control

N#C/C(N)=C(\C#N)N=C1OCC(O)C(O)C1O (stereo not given)
inactive: dose: 12.5 mg/kg/injection, schedule: Q01DX005 (ip), vehicle: other 102 % of control | dose: 25.0 mg/kg/injection, schedule: Q01DX005 (ip), vehicle: other 101 % of control | dose: 50.0 mg/kg/injection, schedule: Q01DX005 (ip), vehicle: other 98 % of control | dose: 100.0 mg/kg/injection, schedule: Q01DX005 (ip), vehicle: other 106 % of control | dose: 200.0 mg/kg/injection, schedule: Q01DX005 (ip), vehicle: other 112 % of control

CC(=O)Nc1ccc(OC(=O)Nc2ccc(F)c(Cl)c2)cc1
inactive: [9] 98 % of control | [10] 93 % of control | dose: 400.0 mg/kg/injection, schedule: Q01DX009 (ip), vehicle: saline with Tween-80 110 % of control
